# Like-named read-outs stand apart in the source and are kept apart here.
# What was measured:
# MAO-B = biological target: T1, MAO-B (Rattus norvegicus, UniProt P19643); assay: in vivo; details: for ED50 / inhibition at 0.5 mg/kg: rat
# T1 sequence (P19643 1-520): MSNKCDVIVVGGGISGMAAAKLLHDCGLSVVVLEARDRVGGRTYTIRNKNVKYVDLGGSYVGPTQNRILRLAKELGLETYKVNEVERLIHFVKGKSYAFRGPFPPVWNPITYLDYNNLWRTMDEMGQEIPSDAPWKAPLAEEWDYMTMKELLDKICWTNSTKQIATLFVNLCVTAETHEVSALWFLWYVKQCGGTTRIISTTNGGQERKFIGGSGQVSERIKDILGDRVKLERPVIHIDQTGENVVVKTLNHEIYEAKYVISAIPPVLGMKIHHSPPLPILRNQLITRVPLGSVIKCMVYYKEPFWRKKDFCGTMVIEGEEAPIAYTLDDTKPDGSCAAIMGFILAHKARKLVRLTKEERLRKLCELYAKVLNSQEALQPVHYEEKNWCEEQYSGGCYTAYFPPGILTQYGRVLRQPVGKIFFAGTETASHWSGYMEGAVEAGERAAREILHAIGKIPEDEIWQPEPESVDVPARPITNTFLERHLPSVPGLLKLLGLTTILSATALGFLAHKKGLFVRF
# Description: Groups of three rats were used for each dose level of inhibitor, and MAO activity determined in brain and liver using the general technique described above. The amount of protein in each incubation was determined using the Folin-Lowry method, and enzyme activity calculated as nmol of substrate metabolized per hour of incubation for each mg of protein. Activity of MAO in tissues from animals treated with inhibitors was expressed as a percentage of the enzyme activity in a group of control animals administered vehicle (water for oral administration, 0.9% saline for ip injection) and killed as above.
# [1] = test system: MPTP-induced striatal dopamine depletions; assay: Suppression of MPTP-induced dopaminergic toxicity (striatal DA and DOPAC); assay type: in vivo, mice; details: striatum
# Description: Brains were removed and corpora striata dissected on an ice-cold glass plate and frozen on dry ice. Striatal tissues were homogenized in 0.1 M perchloric acid, and deproteinized aliquots containing dihydroxybenzylamine as an internal standard were assayed for dopamine and its major metabolite 3,4-dihydroxy-phenylacetic acid (DOPAC) using HPLC with electrochemical detection.
# [2] = test system: passive avoidance response
# Description: [R] (+)PAI or [S] (-)PAI were administered according to one of the following protocols.
# Protocol A - Nursing mothers were given a dose of either isomer of 1-1.5 mg/kg/day in drinking water until weaning at 21 days. Following that, the weaned offsprings were directly treated with the same dose for 20 days. Treatment was terminated at 40 days and the test was performed at 60 days, that is 20 days after the last dose of the drug.
# Protocol B - The dose was reduced to 0.5 mg/kg/day administered to the nursing mother until weaning at 21 days, then directly to the young rats to 60 days at which time the test was performed. ,
# Passive Avoidance Test - The apparatus consisted of a lit chamber adjoining a dark chamber and a sliding door separating the two. At training, a rat was placed in the lit chamber for 30 seconds, and then the door was opened. The rat moved to the dark chamber with a latency that was recorded. Upon entry of the rat into the dark compartment, the door was closed and a 0.3 mA foot-shock was delivered for 3 seconds.
# [3] = test system: anoxia-induced hyperactive syndrome; details: 0.5 mg/kg/day to nursing mothers
# Description: Anoxia was performed on rat pups on the first post-natal day. They were placed in a glass chamber and exposed to 100% nitrogen for 25 minutes. They were resuscitated by intermittent massage softly applied to the chest and then returned to their respective mothers. Control rats received the same treatment but with air instead of nitrogen.
# Locomotion was measured in 6 fully computerized cages (28 x 28 cm) by recording the number of crossings over a given period of time. Crossings of grid infrared beams at 4-cm intervals initiated electrical impulses which fed a counter.
# Recordings of motor activity were made at the ages of 15 and 20 days, over a period of 15 minutes.
# guinea-pig ileum [4] = test system: guinea-pig ileum
# guinea-pig ileum [5] = details: bethanechol 0.8 µM; PAI HCl 20 µM
# guinea-pig ileum [6] = assay: tissue or blood; details: Cavia porcellus, read-out: Percent relaxation
# guinea-pig ileum [7] = assay: tissue or blood; details: Cavia porcellus, read-out: Percent relaxation; remark: listed apart in the source
# [8] = Protocol A, Anoxia-lesioned rats
# [9] = Protocol B, Anoxia-lesioned rats
compound,measurement,setting,value
"C#CCN[C@@H]1CCc2ccccc21 [[R](+)PAI, R(+)-N-propargyl-1-aminoindan]",inhibition of MAO-B in brain and liver,MAO-B; dose of 1mg/kg,complete inhibition
same,ED50,"MAO-B; ip, 1 h, read-out: IC-50 MAO-B I.P. BRAIN",0.07 mg/kg
same,ED50,"MAO-B; ip, 1 h, read-out: IC-50 MAO-B I.P. LIVER",0.06 mg/kg
same,inhibition at 0.5 mg/kg,"MAO-B; ip, read-out: inhibition of brain MAO-B activity",90%
same,ED50,"MAO-B; po, 2 h, read-out: IC-50 MAO-B P.O. BRAIN",0.17 mg/kg
same,ED50,"MAO-B; po, 2 h, read-out: IC-50 MAO-B P.O. LIVER",0.05 mg/kg
same,inhibition at 0.5 mg/kg,"MAO-B; po, read-out: inhibition of MAO-B",80%
same,DOPAC,"[1]; drug alone (PAI isomers […] i.p., deprenyl 5 mg/kg i.p.)",3.3±0.3 ng/mg protein
same,DA,"[1]; drug alone (PAI isomers […] i.p., deprenyl 5 mg/kg i.p.), Mean±S.E.M.",185.0±6.9 ng/mg protein
same,DA,"[1]; pretreatment one hour before MPTP-HCl 30 mg/kg s.c. (PAI isomers […] i.p., deprenyl 5 mg/kg i.p.), 5 days later",177.8±14.4 ng/mg protein
same,DOPAC,"[1]; pretreatment one hour before MPTP-HCl 30 mg/kg s.c., 5 days later",6.0±0.3 ng/mg protein
same,latency After Electroshock,[2]; [8],239 ± 99 s
same,latency Before Electroshock,[2]; [8],49 ± 10 s
same,percent increase of latency After Electroshock,"[2]; Protocol A, Anoxia-lesioned rats, versus corresponding anoxia group",19%
same,latency After Electroshock,"[2]; Protocol A, Control rats",220 ± 100 s
same,percent increase of latency After Electroshock,"[2]; Protocol A, Control rats, versus corresponding control group",+9%
same,latency Before Electroshock,"[2]; Protocol B (0.5 mg/kg/day), Control rats",48 ± 11 s
same,latency After Electroshock,[2]; [9],137 ± 126 s
same,latency Before Electroshock,[2]; [9],52 ± 12 s
same,percent increase of latency After Electroshock,[2]; [9],+15%
same,latency After Electroshock,"[2]; Protocol B, Control rats",128 ± 119 s
same,percent increase of latency After Electroshock,"[2]; Protocol B, Control rats",+23%
same,numbers of crossings of infrared beam grid over 15 minutes,"[3]; Anoxia-lesioned, 15-day old rats",276 ± 186(15)a
same,numbers of crossings of infrared beam grid over 15 minutes,"[3]; Anoxia-lesioned, 20-day old rats",737 ± 150 (16) c
same,numbers of crossings of infrared beam grid over 15 minutes,"[3]; Control, 15-day old rats",254 ± 149(11)c
same,numbers of crossings of infrared beam grid over 15 minutes,"[3]; Control, 20-day old rats",719 ± 110(13)
same,gram-tension,"guinea-pig ileum [4]; bethanechol 0.8 µM, 400 µM PAI HCl enantiomer",0.2 gram-tension
same,gram-tension,"guinea-pig ileum [4]; bethanechol 2 µM, 400 µM enantiomer",0.3 gram-tension
same,gram-tension,"guinea-pig ileum [4]; bethanechol 4 µM, 400 µM enantiomer",0.7 gram-tension
same,gram-tension,"guinea-pig ileum [4]; bethanechol 8 µM, 400 µM enantiomer",1.0 gram-tension
same,gram-tension,"guinea-pig ileum [4]; bethanechol 20 µM, 400 µM enantiomer",2.0 gram-tension
same,gram-tension,"guinea-pig ileum [4]; bethanechol 40 µM, 400 µM enantiomer",2.8 gram-tension
same,gram-tension,"guinea-pig ileum [4]; bethanechol 80 µM, 400 µM enantiomer",3.1 gram-tension
same,gram-tension,"guinea-pig ileum [4]; bethanechol 200 µM, 400 µM enantiomer",4.3 gram-tension
same,Percent relaxation,guinea-pig ileum [5],25%
same,inhibition at 2 µM,guinea-pig ileum [6],0%
same,inhibition at 4 µM,guinea-pig ileum [6],0%
same,inhibition at 10 µM,guinea-pig ileum [6],0%
same,inhibition at 40 µM,guinea-pig ileum [6],37%
same,inhibition at 400 µM,guinea-pig ileum [6],100%
same,inhibition at 700 µM,guinea-pig ileum [6],100%
same,inhibition at 60 µM,guinea-pig ileum [7],25 to 50%

# Source: patent publication EP0812190B1 (priority 1993, dated 1995)
